Numbering of substitutions follows the chain as printed. Like-named read-outs stand apart in the source and are kept apart here.
Tests used:
Experiment in all cases: calcium imaging (Calcium-4), HEK […]
Type in all cases: cell-based
human TAS2R16 [1] = biological target: T1, human TAS2R16 (Homo sapiens, UniProt Q9NYV7, L125W)
T1 construct: full-length; N-terminal 45 residues of rat SSTR3 and C-terminal 8 residues of bovine rhodopsin as tags; pEAK10, HEK 293T with G16gust44
T1 sequence (Q9NYV7 1-291 L125W): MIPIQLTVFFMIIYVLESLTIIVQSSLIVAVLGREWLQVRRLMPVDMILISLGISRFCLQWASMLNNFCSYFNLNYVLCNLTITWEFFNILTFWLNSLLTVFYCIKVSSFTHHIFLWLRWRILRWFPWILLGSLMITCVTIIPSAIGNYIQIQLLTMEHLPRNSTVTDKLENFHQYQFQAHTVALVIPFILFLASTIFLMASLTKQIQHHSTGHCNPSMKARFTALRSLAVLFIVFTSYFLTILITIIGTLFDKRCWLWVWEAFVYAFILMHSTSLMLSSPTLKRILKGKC

human TAS2R16 [2] = biological target: T2, human TAS2R16 (Homo sapiens, UniProt Q9NYV7, E86T/V260F)
T2 construct: full-length; N-terminal 45 residues of rat SSTR3 and C-terminal 8 residues of bovine rhodopsin as tags; pEAK10, HEK 293T with G16gust44
T2 sequence (Q9NYV7 1-291 E86T/V260F): T1 sequence (Q9NYV7 1-291 L125W) with E86T, W125L, V260F

human TAS2R16 [3] = biological target: T3, human TAS2R16 (Homo sapiens, UniProt Q9NYV7, E86T/I247M/V260F)
T3 construct: full-length; N-terminal 45 residues of rat SSTR3 and C-terminal 8 residues of bovine rhodopsin as tags; pEAK10, HEK 293T with G16gust44
T3 sequence (Q9NYV7 1-291 E86T/I247M/V260F): T1 sequence (Q9NYV7 1-291 L125W) with E86T, W125L, I247M, V260F

human TAS2R16 [4] = biological target: T4, human TAS2R16 (Homo sapiens, UniProt Q9NYV7, S133C)
T4 construct: full-length; N-terminal 45 residues of rat SSTR3 and C-terminal 8 residues of bovine rhodopsin as tags; pEAK10, HEK 293T with G16gust44
T4 sequence (Q9NYV7 1-291 S133C): T1 sequence (Q9NYV7 1-291 L125W) with W125L, S133C

human TAS2R16 [5] = biological target: T5, human TAS2R16 (Homo sapiens, UniProt Q9NYV7); conditions: G16gust44 co-expressed; agonist
T5 construct: full-length; N-terminal 45 residues of rat SSTR3 and C-terminal 8 residues of bovine rhodopsin as tags; pEAK10, HEK 293T with G16gust44
T5 sequence (Q9NYV7 1-291): T1 sequence (Q9NYV7 1-291 L125W) with W125L

human TAS2R16 [6] = biological target: T6, human TAS2R16 (Homo sapiens, UniProt Q9NYV7, V260F)
T6 construct: full-length; N-terminal 45 residues of rat SSTR3 and C-terminal 8 residues of bovine rhodopsin as tags; pEAK10, HEK 293T with G16gust44
T6 sequence (Q9NYV7 1-291 V260F): T1 sequence (Q9NYV7 1-291 L125W) with W125L, V260F

human TAS2R16 [7] = biological target: T7, human TAS2R16 (Homo sapiens, UniProt Q9NYV7, I247M)
T7 construct: full-length; N-terminal 45 residues of rat SSTR3 and C-terminal 8 residues of bovine rhodopsin as tags; pEAK10, HEK 293T with G16gust44
T7 sequence (Q9NYV7 1-291 I247M): T1 sequence (Q9NYV7 1-291 L125W) with W125L, I247M

human TAS2R16 [8] = biological target: T8, human TAS2R16 (Homo sapiens, UniProt Q9NYV7, E86T/I247M)
T8 construct: full-length; N-terminal 45 residues of rat SSTR3 and C-terminal 8 residues of bovine rhodopsin as tags; pEAK10, HEK 293T with G16gust44
T8 sequence (Q9NYV7 1-291 E86T/I247M): T1 sequence (Q9NYV7 1-291 L125W) with E86T, W125L, I247M

human TAS2R16 [9] = biological target: T5, human TAS2R16

Row | EC50 (human TAS2R16 [1]) [µM] | EC50 (human TAS2R16 [2]) [µM] | EC50 (human TAS2R16 [3]) [µM] | EC50 (human TAS2R16 [4]) [µM] | EC50 (human TAS2R16 [6]) [µM] | EC50 (human TAS2R16 [7]) [µM] | EC50 (human TAS2R16 [8]) [µM] | Compound | EC50 (human TAS2R16 [5]) | EC50 (human TAS2R16 [9]) [µM]
1 | 200 ± 50 | 3650 ± 1000 | 5090 ± 1100 | 74 ± 6 | 1280 ± 180 | 1400 ± 90 | 3540 ± 550 | OCc1ccccc1O[C@@H]1O[C@H](CO)[C@@H](O)[C@H](O)[C@H]1O [salicin] | plotted with wild-type human and macaque TAS2R16s | –
2 | – | – | – | – | – | – | – | N#C[C@H](O[C@@H]1O[C@H](CO[C@@H]2O[C@H](CO)[C@@H](O)[C@H](O)[C@H]2O)[C@@H](O)[C@H](O)[C@H]1O)c1ccccc1 [amygdalin] | – | 760 ± 400

— PMC5042178, “Amino acid residues of bitter taste receptor TAS2R16 that determine sensitivity in primates to β-glycosides” (Biophysics and Physicobiology, 2016)
